Assay results reported in patent publication US11001587B2, “Substituted indazoles as phosphatidylinositol kinase inhibitors” (CUROVIR AB, priority 2017, dated 2021).

Experiments:
coxsackie B3 virus = test: In vitro CPE assay in mammalian cell culture, B3; assay type: cell-based; settings: Enterovirus B, viral cytopathic effect in mammalian cell culture, read-out: B3 inhibition capacity (IC50)
coxsackie B2 virus = test: In vitro CPE assay in mammalian cell culture, B2; assay type: cell-based; settings: viral cytopathic effect in mammalian cell culture, read-out: B2 inhibition capacity (IC50)
in vitro = in vitro ADME; settings: plasma, pH 7.4
Procedure: Plasma protein binding study was performed by using a Rapid Equilibrium Dialysis (RED) device containing dialysis membrane with a molecular weight cut-off of 8,000 Daltons. Each dialysis insert contains two chambers. The red chamber was for the plasma while the white chamber was for the buffer. The human and rat plasma (pH adjusted to 7.40) samples of test items and reference items (Warfarin and Propranolol) were prepared at a required test concentration of 5 μM using 5 mM DMSO stocks (final DMSO concentration was 0.1%). 300 μL of plasma sample was added into the sample chamber. 500 μL of buffer was added into the buffer chamber. After sealing the RED device with an adhesive film, incubation was done at 37° C. with shaking at 300 rpm for 4 h. Following incubation, an aliquot of 50 μL was removed from each well (plasma and buffer side) and diluted with equal volume of opposite matrix to nullify the matrix effect. The specimens were subjected to sample extraction in presence of internal standard by liquid-liquid extraction/protein precipitation method. After extraction, the samples were transferred into labeled auto sampler vials and submitted to LC-MS/MS analysis.

Enterovirus 30 = test: In vitro CPE assay in mammalian cell culture, EV30; assay type: cell-based; settings: viral cytopathic effect in mammalian cell culture, read-out: EV30 inhibition capacity (IC50)
Enterovirus 6 = test: In vitro CPE assay in mammalian cell culture, EV6; assay type: cell-based; settings: viral cytopathic effect in mammalian cell culture, read-out: EV6 inhibition capacity (IC50)
polio virus Sabin 1 = test: organism not typed; assay type: cell-based; settings: read-out: Polio 1 inhibition capacity (IC50)
Enterovirus 68 = test: In vitro CPE assay in mammalian cell culture, EV68; assay type: cell-based; settings: Enterovirus D, viral cytopathic effect in mammalian cell culture, read-out: EV68 inhibition capacity (IC50)
Enterovirus 71 = test: In vitro CPE assay in mammalian cell culture, EV71; assay type: cell-based; settings: Enterovirus A, viral cytopathic effect in mammalian cell culture, read-out: EV71 inhibition capacity (IC50)
[1] = Metabolic stability in human liver microsomes; assay type: in vitro ADME
Procedure: (§1) Metabolic stability in human and rat liver microsomesMetabolic stability was studied using human (HLM) or rat (RLM) liver microsomes. The final composition of the assay included 5 μM of test item and reference item (Diclofenac or Imipramine) prepared from DMSO stock, so that the final concentration of DMSO was 0.1%, 0.125 mg/mL microsomal protein and cofactors (5.0 mM G-6-P, 0.06 U/mL G-6-PDH, 2.0 mM MgCl2, 1.0 mM NADP^+). Test and reference items were incubated with human or rat liver microsomes with or without cofactors. The reaction mixture (100 μL) was removed at specified time periods and the reaction was stopped by addition of stop solution. The samples were extracted in presence of internal standard and were analyzed using LC-MS/MS. The percent of the test/reference item remaining after a specified incubation period was calculated with respect to the peak area ratio at time 0 min.

in vivo [2] = test: in vivo; design: species or system Sprague Dawley rats; settings: Sprague Dawley, rat, po
Procedure: Based on previous toxicity tests with analogs and pharmacokinetic data, repeated dose toxicity and toxicokinetic studies were conducted to generate information on the toxic characteristics of some representative compounds of the invention, viz. Example 8 and Example 12, respectively, when administered orally by gavage to Sprague Dawley rats for a period of 7 consecutive days. The study plan for the studies was by current ICH guidelines for 7 days toxicity studies and the No Observed Adverse Effect Level (NOAEL) of Example 8 and Example 12 was determined as 60 mg/kg body weight/day and 50 mg/kg bodyweight/day respectively when administered once daily orally to Sprague Dawley rats for 7 consecutive days under the tested dose levels and experimental conditions employed.

coxsackie B1 virus = test: In vitro CPE assay in mammalian cell culture, B1; assay type: cell-based; settings: viral cytopathic effect in mammalian cell culture, read-out: B1 inhibition capacity (IC50)
coxsackie B4 virus = test: In vitro CPE assay in mammalian cell culture, B4; assay type: cell-based; settings: Enterovirus B, viral cytopathic effect in mammalian cell culture, read-out: B4 inhibition capacity (IC50)
in vivo [3] = test: in vivo; design: species or system Sprague Dawley rats; settings: male, Sprague Dawley, rat, po, 50 mg/kg
Procedure: Overnight fasted animals were administered with the test compounds in recommended vehicle 0.4% (v/v) Tween 80+2% (v/v) Glycerol and 15% w/v HPBCD by oral route with a dose of 50 mg/kg body weight at dose volume of 10 mL/kg bw. Under mild isoflurane anesthesia, blood samples were collected into pre-labeled tubes containing anticoagulant (K2EDTA—2 mg/mL blood) during the next 24 hours post dose. Collected blood samples were centrifuged at 4000 rpm, 4° C. for 10 minutes and plasma was separated and stored at −80° C. until analysis.

PI3Kα = PI3Kα (Homo sapiens, UniProt P42336); test: PI3 kinase inhibition HTRF assay; assay type: biochemical; settings: * no inhibition at the highest tested concentration 1 μM
Procedure: (§2) Phosphatidyl inositol kinase inhibition assay Inhibition of PI4 kinases was studied using the ADP-Glo™ Kinase Assay which is a luminescent kinase assay that measures ADP formed from a kinase reaction, wherein ADP is converted into ATP, which is converted into light by Ultra-Glo™ Luciferase. The assay is performed in two steps; first, after the kinase reaction, an equal volume of ADP-Glo™ Reagent is added to terminate the kinase reaction and deplete the remaining ATP. In the second step, the Kinase Detection Reagent is added, which simultaneously converts ADP to ATP and allows the newly synthesized ATP to be measured using a coupled luciferase/luciferin reaction. The luminescent signal produced is proportional to the activity of the kinase. Inhibition of PI3 kinases was studied using the HTRF (homogeneous time-resolved fluorescence) assay, which is a universal method for identifying and characterizing the phosphotransferase activity induced by any ATP/ADP dependent target. The formation of ADP was detected by a specific monoclonal antibody labeled with Eu^3+ cryptate, and directly correlated with the amount of phosphorylated substrate.

PI3Kβ = PI3Kβ (Homo sapiens, UniProt P42338); test: PI3 kinase inhibition HTRF assay; assay type: biochemical; settings: * no inhibition at the highest tested concentration 1 μM
Sequence of PI3Kβ (P42338 whole entry, species assumed): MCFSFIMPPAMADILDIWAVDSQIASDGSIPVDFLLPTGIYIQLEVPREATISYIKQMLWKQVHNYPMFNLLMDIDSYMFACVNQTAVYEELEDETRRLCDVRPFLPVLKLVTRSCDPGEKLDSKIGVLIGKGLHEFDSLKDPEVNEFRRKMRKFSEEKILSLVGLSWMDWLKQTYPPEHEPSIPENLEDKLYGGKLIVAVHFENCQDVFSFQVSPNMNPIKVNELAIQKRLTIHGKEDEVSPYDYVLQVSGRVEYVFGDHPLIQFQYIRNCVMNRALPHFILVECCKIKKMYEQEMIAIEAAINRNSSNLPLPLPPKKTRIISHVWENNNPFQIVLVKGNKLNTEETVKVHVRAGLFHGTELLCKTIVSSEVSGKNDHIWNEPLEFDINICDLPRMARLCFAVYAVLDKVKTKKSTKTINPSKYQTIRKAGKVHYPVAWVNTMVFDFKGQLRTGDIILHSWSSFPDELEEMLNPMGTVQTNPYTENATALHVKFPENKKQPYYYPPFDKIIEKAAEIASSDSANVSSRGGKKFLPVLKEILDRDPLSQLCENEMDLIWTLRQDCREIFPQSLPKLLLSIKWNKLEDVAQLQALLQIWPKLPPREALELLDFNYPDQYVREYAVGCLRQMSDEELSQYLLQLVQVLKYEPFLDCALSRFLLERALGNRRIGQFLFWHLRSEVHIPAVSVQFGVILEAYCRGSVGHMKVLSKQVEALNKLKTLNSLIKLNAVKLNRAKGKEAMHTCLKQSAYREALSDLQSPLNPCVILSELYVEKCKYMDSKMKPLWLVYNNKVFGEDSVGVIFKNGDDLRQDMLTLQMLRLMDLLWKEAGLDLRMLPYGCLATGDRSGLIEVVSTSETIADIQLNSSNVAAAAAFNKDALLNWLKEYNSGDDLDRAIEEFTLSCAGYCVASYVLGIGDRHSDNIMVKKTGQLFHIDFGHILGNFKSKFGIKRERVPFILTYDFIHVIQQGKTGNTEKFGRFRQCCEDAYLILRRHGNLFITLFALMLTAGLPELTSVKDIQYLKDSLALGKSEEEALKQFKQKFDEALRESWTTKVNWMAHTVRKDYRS
Sequence of PI3Kβ (P27986 whole entry partner, species assumed): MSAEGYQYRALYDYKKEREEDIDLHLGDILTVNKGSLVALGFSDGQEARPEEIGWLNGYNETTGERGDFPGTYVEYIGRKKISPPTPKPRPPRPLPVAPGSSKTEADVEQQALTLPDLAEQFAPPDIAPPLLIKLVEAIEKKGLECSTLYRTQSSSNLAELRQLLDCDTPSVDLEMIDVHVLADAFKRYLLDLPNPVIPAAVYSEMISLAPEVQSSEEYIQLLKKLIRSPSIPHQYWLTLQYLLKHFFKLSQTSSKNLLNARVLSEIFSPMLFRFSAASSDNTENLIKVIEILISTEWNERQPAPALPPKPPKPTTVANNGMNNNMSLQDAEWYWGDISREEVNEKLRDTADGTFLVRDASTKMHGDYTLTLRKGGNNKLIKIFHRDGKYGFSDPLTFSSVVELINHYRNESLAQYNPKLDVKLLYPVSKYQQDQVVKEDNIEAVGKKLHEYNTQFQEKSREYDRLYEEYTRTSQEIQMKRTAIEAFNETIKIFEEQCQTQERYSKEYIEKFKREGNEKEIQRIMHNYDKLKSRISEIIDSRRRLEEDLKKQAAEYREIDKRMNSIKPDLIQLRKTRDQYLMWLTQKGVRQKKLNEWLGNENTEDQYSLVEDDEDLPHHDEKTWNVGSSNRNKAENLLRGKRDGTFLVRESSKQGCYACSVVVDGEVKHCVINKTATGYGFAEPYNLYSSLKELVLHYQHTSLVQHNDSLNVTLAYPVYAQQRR
Procedure: as §2

[4] = Metabolic stability in rat liver microsomes; assay type: in vitro ADME; settings: 5 μM test item, 0.125 mg/mL microsomal protein
Procedure: as §1

coxsackie B5 virus = test: In vitro CPE assay in mammalian cell culture, B5; assay type: cell-based; settings: viral cytopathic effect in mammalian cell culture, read-out: B5 inhibition capacity (IC50)
PI4KIIIβ = PI4KIIIβ (Homo sapiens, UniProt Q9UBF8); test: Phosphatidyl inositol kinase inhibition assay (ADP-Glo Kinase Assay); assay type: biochemical
Sequence of PI4KIIIβ (Q9UBF8 whole entry): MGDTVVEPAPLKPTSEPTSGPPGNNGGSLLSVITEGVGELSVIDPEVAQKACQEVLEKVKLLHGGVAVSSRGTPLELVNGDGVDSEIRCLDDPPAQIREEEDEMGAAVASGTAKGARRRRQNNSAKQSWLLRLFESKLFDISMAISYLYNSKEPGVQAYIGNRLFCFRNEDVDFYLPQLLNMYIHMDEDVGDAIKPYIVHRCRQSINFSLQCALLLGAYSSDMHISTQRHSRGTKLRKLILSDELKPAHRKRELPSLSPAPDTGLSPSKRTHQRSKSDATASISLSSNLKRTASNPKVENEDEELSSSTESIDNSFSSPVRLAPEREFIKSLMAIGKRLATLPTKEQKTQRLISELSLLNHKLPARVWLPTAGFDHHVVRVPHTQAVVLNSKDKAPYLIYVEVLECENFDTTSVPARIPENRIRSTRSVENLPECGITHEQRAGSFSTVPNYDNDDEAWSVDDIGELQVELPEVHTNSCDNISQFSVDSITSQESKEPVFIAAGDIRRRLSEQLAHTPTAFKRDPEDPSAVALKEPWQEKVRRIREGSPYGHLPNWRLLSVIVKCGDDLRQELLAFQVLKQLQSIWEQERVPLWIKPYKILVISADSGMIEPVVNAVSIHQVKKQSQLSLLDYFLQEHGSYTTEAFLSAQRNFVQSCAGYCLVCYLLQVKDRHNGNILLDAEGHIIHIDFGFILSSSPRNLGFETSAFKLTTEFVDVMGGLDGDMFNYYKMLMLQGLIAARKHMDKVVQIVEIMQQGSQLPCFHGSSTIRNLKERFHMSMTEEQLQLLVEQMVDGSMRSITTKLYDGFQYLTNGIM
Procedure: as §2

PI4KIIIα = PI4KIIIα (Homo sapiens, UniProt P42356); test: as above; assay type: biochemical; settings: * no inhibition at the highest tested concentration 1 μM
Sequence of PI4KIIIα (P42356 whole entry): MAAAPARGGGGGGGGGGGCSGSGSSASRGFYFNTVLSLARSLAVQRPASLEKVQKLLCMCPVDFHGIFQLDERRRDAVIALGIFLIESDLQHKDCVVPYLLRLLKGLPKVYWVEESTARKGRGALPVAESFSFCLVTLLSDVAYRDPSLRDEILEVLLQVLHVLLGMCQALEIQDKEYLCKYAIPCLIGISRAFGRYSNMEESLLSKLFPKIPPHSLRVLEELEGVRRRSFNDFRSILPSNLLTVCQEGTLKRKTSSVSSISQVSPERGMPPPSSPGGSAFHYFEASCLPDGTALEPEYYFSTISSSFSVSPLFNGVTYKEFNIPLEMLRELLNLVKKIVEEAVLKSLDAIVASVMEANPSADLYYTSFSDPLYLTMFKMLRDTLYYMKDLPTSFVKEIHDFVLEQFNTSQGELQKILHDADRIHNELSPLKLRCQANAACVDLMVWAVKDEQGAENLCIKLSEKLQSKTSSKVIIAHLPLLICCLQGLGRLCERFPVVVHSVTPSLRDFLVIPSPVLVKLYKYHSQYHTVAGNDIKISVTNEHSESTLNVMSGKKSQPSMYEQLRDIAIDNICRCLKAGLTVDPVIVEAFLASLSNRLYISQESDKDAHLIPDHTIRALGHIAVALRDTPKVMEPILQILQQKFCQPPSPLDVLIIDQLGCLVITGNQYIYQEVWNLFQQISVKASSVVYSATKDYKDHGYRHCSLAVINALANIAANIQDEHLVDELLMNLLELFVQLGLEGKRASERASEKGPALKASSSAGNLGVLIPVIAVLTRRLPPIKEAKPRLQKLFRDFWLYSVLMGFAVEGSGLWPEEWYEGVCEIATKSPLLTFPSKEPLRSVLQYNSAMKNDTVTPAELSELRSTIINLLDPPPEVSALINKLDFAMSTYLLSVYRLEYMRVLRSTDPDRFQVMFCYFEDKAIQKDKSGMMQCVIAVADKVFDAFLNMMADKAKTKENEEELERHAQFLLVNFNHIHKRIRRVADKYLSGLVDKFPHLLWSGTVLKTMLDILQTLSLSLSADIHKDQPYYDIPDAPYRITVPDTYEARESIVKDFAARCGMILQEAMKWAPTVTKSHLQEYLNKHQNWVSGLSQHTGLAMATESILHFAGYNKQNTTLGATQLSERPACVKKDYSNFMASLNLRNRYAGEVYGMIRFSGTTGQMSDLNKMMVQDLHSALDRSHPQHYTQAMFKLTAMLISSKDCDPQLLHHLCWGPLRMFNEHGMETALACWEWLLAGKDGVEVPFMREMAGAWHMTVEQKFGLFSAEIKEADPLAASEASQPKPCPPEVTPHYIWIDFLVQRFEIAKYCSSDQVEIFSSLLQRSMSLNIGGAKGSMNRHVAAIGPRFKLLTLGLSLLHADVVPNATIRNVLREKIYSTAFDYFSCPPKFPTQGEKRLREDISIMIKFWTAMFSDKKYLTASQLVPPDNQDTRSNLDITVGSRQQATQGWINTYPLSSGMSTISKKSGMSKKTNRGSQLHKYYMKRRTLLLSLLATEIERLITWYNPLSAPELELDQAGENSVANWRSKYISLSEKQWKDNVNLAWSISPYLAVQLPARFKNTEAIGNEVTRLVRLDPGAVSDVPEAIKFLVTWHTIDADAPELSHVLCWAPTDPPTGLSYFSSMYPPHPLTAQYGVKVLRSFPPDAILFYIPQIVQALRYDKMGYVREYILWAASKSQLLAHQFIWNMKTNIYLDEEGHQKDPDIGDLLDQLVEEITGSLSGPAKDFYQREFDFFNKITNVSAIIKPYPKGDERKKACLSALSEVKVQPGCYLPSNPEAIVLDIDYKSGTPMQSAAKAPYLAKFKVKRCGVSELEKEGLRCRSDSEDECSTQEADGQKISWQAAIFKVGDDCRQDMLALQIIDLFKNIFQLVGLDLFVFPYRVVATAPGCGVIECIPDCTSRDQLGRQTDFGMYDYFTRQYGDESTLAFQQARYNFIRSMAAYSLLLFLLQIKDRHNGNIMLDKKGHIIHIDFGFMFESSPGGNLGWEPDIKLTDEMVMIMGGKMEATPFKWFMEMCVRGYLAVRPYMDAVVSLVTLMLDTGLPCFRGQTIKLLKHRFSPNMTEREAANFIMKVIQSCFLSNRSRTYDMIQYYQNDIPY
Procedure: as §2

## Cc1cc(NCc2ccc(S(C)(=O)=O)cc2)n2nc(C)c(-c3ccc4c(c3)c(C)nn4C)c2n1 [Example 12, 3-(1,3-dimethyl-1H-indazol-5-yl)-2,5-dimethyl-N-(4-(methyl-sulfonyl)benzyl)pyrazolo[1,5-a]pyrimidin-7-amine]
Coxsackie B3 virus
  IC50: < 0.001 µM
Coxsackie B2 virus
  IC50: < 0.01 µM
In vitro; human
  fraction unbound at 4 h, 5 μM: 0.01
In vitro; rat
  fraction unbound at 4 h, 5 μM: 0.015
Enterovirus 30
  IC50: < 0.001 µM
Enterovirus 6
  IC50: < 0.01 µM
Polio virus Sabin 1
  IC50: < 0.01 µM
Enterovirus 68
  IC50: < 0.1 µM
Enterovirus 71
  IC50: < 0.01 µM
[1]; human liver microsomes, 5 μM test item, 0.125 mg/mL microsomal protein
  Remaining after 1 h, HLM: 84%
[1]; human, microsomes
  half-life at 5 μM: > 2 h
In vivo [2]
  NOAEL at 7 days: 50 mg/kg/day
Coxsackie B1 virus
  IC50: < 0.01 µM
Coxsackie B4 virus
  IC50: < 0.001 µM
In vivo [3]
  AUC(0-inf): 73300 ± 46900 ng·h/mL
  AUC(0-t): 30000 ± 8200 ng·h/mL
  AUCextrap: 49.4 ± 24.5%
  Cmax: 1900 ± 100 ng/mL
  MRT last: 10.3 ± 1.2 h
  Tmax: 5.3 ± 2.3 h
  half-life: 27.6 ± 16.8 h
PI3Kα
  IC50: > 1 µM
PI3Kβ
  IC50: > 1 µM
[4]
  Remaining after 1 h, RLM: 71%
Coxsackie B5 virus
  IC50: < 0.001 µM
PI4KIIIβ
  IC50: 0.0008 µM
PI4KIIIα
  IC50: 0.8 µM
